“Also recorded” adds a separate entry of the source. Where two headings read alike, the source gives them in different places. Each block holds one molecule with its values, some of them ahead of it.
Key:
human neutrophils = assay: Oxygen consumption (oxidative burst) of human neutrophils; type: cell-based; details: for IC50: read-out: Concentration required for 50% inhibition; for RATE of oxygen consumption, NO SPHINGANINE: activator alone
From the text: Human neutrophils were obtained by continuous flow leukapheresis from normal adults. Residual erythrocytes were removed by hypotonic lysis with a resulting purity of >95% neutrophils. Alternatively peripheral blood was obtained by phlebotomy and neutrophils were isolated by HESPAN (6% Hetastarch, 0.9% NaCl) sedimentaion of erythrocytes, centrifugation through lymphocyte separation medium (9.4% sodium diatrizoate, 6.2% Ficoll), and hypotonic lysis of residual erythrocytes. Isolated cells were resuspended in phosphate buffered saline (PBS)-glucose, containing 0.6 mM CaCl2, 2.6 mM KCl, 1.5 mM KH2 PO4, 0.5 mM MgCl2, 136 mM NaCl, 8 mM Na2 HPO4, 5.5 mM glucose.
Oxygen consumption was measured using a Clark-type electrode with YSI model 53 oxygen monitor. Assays were conducted at 37° C. with 6.5×10^6 cells per ml with a total volume of either 2.5 ml or 4 ml. Effectors were injected into the electrode chamber using a Hamilton syringe. Initial slopes after the addition of the stimuli were used for rate calculations. For activators with a lag prior to the onset of the oxidative burst, maximal rates following the lag were used.

protein kinase C [1] = assay: Triton X-100 mixed micellar assay for protein kinase C activity; type: biochemical, rat; details: mixed micellar assay
Experimental: Protein kinase C was partially purified from rat brain as described by Hanrun et al (J. Biol. Chem., 260, 10043, 1985), which is hereby incorporated by reference.
Protein kinase C was assayed with Triton X-100 mixed micelles as described by Hanrun et al, (ibid.), Sphingosine was dried down with the lipid cofactors.

HL-60 cells = assay: PMA-induced adherence (attachment) of HL-60 cells; type: cell-based, human; details: for inhibition of PMA-induced attachment: 8 nM PMA
Experimental: Cells were centrifuged at 600 g for 3 min, and added at 1×10^5 cells per well in 12-well culture dishes. Medium, PMA, and long-chain bases (prepared as the 1:1 molar complex with fatty acid-free bovine serum albumin) at the indicated concentrations were added for a total volume of 2.0 ml. After the desired times, the cells in suspension were counted and checked for viability (trypan blue exclusion) with a hemacytometer. The attached cells were quantitated by measuring DNA content according to the method of West et al (Anal. Biochem., 147, 289-295, 1985) and by assaying for acid phosphatase according to the method of Schnyder (J. Exp. Med., 148, 434-445, 1978).

protein kinase C [2] = assay: Mixed micellar protein kinase C activity assay for lysosphingolipids (Table VI); type: biochemical; details: for Inhibition of Protein Kinase C, concentration giving 50% inhibition, (mol %): 0.3% Triton X-100, 1 mol % = 43 μM; for IC50: 0.3% Triton X-100 mixed micelles, 2 mol % dioleoylglycerol, read-out: Inhibition of Protein Kinase C, concentration giving 50% inhibition; for IC50 / inhibition of protein kinase C activity: 6 mol % phosphatidylserine; for inhibition of protein kinase C activity: 2 mol % sn-1,2-dioleoylglycerol, 100 μM Ca2+
Experimental: (§1) TABLE VI: Inhibition of protein kinase C activity and phorbol-dibutyrate binding by lysosphingolipids. […] The remaining two columns show the observed effects of the lysosphingolipids of protein kinase C activity and phorbol diester binding in vitro and in human platelets. Lysogangliosides were prepared from their parental gangliosides by hydrolysis in methanolic KOH esentially as described by Neuenhofer et al. in Bioch. 24, 525, 1985. During this preparation, with approximately 90-95% conversion, the N-acetate of N-acetylneuraminic acid is partially hydrolyzed. Fatty acids were partitioned into heptane after acidification of the methanolic reaction mixture. Galactosylsphingosine, glucosylsphingosine, and lactosylsphingosine were prepared as previously described for galactosylsphingosine (Radin, Lipids 9, 358, 1974) Sphingosylphosphorylcholine was prepared by hydrolysis in HCl-butanol (Kaller, Biochemische Zeitschrift 334, 451, 1961). The purity of the lyso derivatives (greater than 90%) was checked by thin layer chromatography (TLC) on silica gel H plates developed in chloroform/methanol/2N NH4 OH (65/35/9) and visualized by ninhydrin reaction for N-lyso compounds, by α-naphthol/sulfuric acid for both gangliosides and lysogangliosides,and by a phospholipid spray for sphingosylphosphorylcholine. Lysosphingolipids were quantitated by reaction of the amine group with trinitrobenzenesulfonate. Gangliosides and lysosphingolipids were also quantitated by reaction with anthrone. The lysosphingolipids were then studied for their effect on protein kinase C activity. Protein kinase C was purified to near homogeneity by the method of Wolf et al. (J. Biol. Chem. 260, 15718, 1985), and activity was measured using a mixed micellar assay (described herein). Lysosphingolipids were added directly in aqueous solution, and allowed to equilibrate with the Triton X-100 (0.3% w/v) mixed micelles containing 6 mol % phosphatidylserine and 2 mol % dioleoylglycerol. […] Phorbol-dibutyrate binding was measured in a mixed micellar assay. Lysosphingolipids inhibited phorbol-dibutyrate binding to protein kinase C in the presence of Triton X-100 mixed micelles containing 20 mol % phosphatidylserine. […] The difference is related to the higher concentration of phosphatidylserine used in the binding assay, as both activity and binding show a high cooperative dependence on phosphatidylserine, which modulates the inhibition by lysosphingolipids. Phorbol-dibutyrate binding to human platelets and 40 kDa phosphorylation in platelets were carried out as described above. Lysosphingolipids inhibited phorbol dibutyrate binding to human platelets at concentrations in the 10-50 μM range. Inhibition of 40 kDa phosphorylation occurred over the same concentration range.

[3] = tested on: protein kinase C-induced phosphorylation of the 40 KDa polypeptide; assay: 40K (40 kDa) protein phosphorylation in human platelets; type: cell-based; details: concentrations less than 100 μM
Experimental: They were then suspended in modified Tyrode's buffer to a concentration of 2.5×10^8 platelets/ml.
^32 Pi at 0.2 mCi/ml was added to the platelet suspension and labelling was allowed to proceed for 75 minutes at 37° C., after which the platelets were pelleted at 600×g for 10 minutes and resuspended in Tyrode's buffer to the same concentration. They were then aliquoted in Eppendorf microfuge tubes and preincubated at 37° C. for 5 minutes with the varying concentrations of sphingosine. Platelets were then stimulated with either 5 μM dioctanoylglycerol (added as an ethanol solution with the final concentration of ethanol 0.5%), 10 μM TPA, or 1 unit/ml thrombin. The reactions were stopped after 30 seconds by the addition of an equal volume of 2× sample buffer, and the samples were then boiled for 3 minutes. […] Gels were subsequently fixed in water/methanol/acetic acid (60:30:10), dried, and autoradiographed.

protein kinase C [4] = assay: Phorbol-dibutyrate binding to protein kinase C, mixed micellar assay (Table VI); details: Triton X-100 mixed micelles, 20 mol % phosphatidylserine
Experimental: as §1

[5] = oxidative burst, PMA activation
[6] = Homo sapiens, Neutrophil, oxidative burst, PMA activation

IC50 (human neutrophils; [5]): > 100 µM
Molecule: 3-amino-3-hydroxy-3-phenyl-propanol [reference compound]

inhibition of protein kinase C (specificity) (protein kinase C [1]): inhibitors | IC50 (human neutrophils; [6]): 24 µM
Molecule: CCCCCCCCCCCCCCC[C@H](O)[C@@H](N)CO (relative stereo) [threo-Sphinganine]
times less effective than erythro-sphinganine (human neutrophils; [5]): 3-4 times

Molecule: NC(CO)C(O)c1ccccc1 (stereo not shown) [1,3-dihydroxy-2-amino-3-phenylpropane]
inhibition of protein kinase C (specificity) (protein kinase C [1]): not to be inhibitors | inhibition of protein kinase C (specificity) (protein kinase C [1]; listed as 1,3-dihydroxy-2-amino-3 phenylpropane): without effect | inhibition of PMA-induced attachment (HL-60 cells): did not inhibit

inhibition of protein kinase C (specificity) (protein kinase C [1]): inhibitors
Molecule: CCCCCCCCCCCCCCCC(=O)C(N)CO (stereo not shown) [3-ketosphinganine]

Molecule: CCCCC/C=C\C/C=C\C/C=C\C/C=C\CCCC(=O)O [Arachidonate, reference compound]
RATE of oxygen consumption, NO SPHINGANINE (human neutrophils): 4.2 nmols O2 consumed/min/10^6 cells

Molecule: CCCCCCCCCCCCCCCC[N+](C)(C)C.[Br-] [CTAB, cetyl trimethylammonium bromide]
inhibition of protein kinase C (specificity) (protein kinase C [1]; listed as cetyl triethylammonium bromide): inactive; also recorded: not to be inhibitors | IC50 (human neutrophils; [6]): > 100 µM

Molecule: CCCCCCCC(=O)OCC(CO)OC(=O)CCCCCCC (stereo not shown) [Dioctanoyl Glycerol, 1,2-dioctanoylglycerol, reference compound]
RATE of oxygen consumption, NO SPHINGANINE (human neutrophils): 6.1 nmols O2 consumed/min/10^6 cells

IC50 (human neutrophils; [6]): > 100 µM
Molecule: CCCCCCCCCCCCCCC[C@@H](O)[C@H](CO)NC(C)=O [N-acetylsphinganine, reference compound]
inhibition of PMA-induced attachment (HL-60 cells; at up to 500 μM): not inhibitory

Molecule: CCCCCCCCCCCCC/C=C/[C@@H](O)[C@H](CO)NC(C)=O [N-acetylsphingosine]
inhibition of protein kinase C (specificity) (protein kinase C [1]): without effect; also recorded: not to be inhibitors

Molecule: CCCCCCCCCCCCCCCC(=O)NC(CO)C(O)CCCCCCCCCCCCCCC (stereo not shown) [N-palmitoyldihydrosphingosine, reference compound]
inhibition of PMA-induced attachment (HL-60 cells): not inhibitory

inhibition of protein kinase C (specificity) (protein kinase C [1]): did not inhibit | IC50 (human neutrophils; [6]): 300 µM
Molecule: CCCCCCCCN [Octylamine, reference compound]
inhibition of PMA-induced attachment (HL-60 cells): did not inhibit

Molecule: CCCCCCCCCCCCCCCCCCN [Stearylamine, reference compound]
inhibition of protein kinase C (specificity) (protein kinase C [1]): nearly as effective as sphingosine | IC50 (HL-60 cells; Homo sapiens, HL-60, read-out: 50% inhibition of PMA-induced attachment): 10 µM | IC50 (human neutrophils; [6]): 25 µM

Molecule: O[C@H]1[C@H]2[C@H](O)CCCN2C[C@H]1O [Swainsonine]
inhibition of protein kinase C (specificity) (protein kinase C [1]): not an inhibitor

Inhibition of Protein Kinase C, concentration giving 50% inhibition, (mol %) (protein kinase C [2]): 4.2 mol % | IC50 (protein kinase C [2]): 180 µM
Molecule: CCCCCCCCCCCCC/C=C/[C@@H](O)[C@@H](N)CO[C@@H]1O[C@H](CO)[C@@H](O[C@@H]2O[C@H](CO)[C@H](O[C@H]3O[C@H](CO)[C@H](O)[C@H](O)[C@H]3O)[C@H](O)[C@H]2O)[C@H](O)[C@H]1O [globotriosylsphingosine]

Molecule: CCCCCCCCCCCCC/C=C/[C@@H](O)[C@H](CO[C@@H]1O[C@H](CO)[C@H](O)[C@H](O)[C@H]1O)NC(C)=O [reference compound]
inhibition of protein kinase C activity (protein kinase C [2]): None of these N-acetyl derivatives inhibited | effect on 40 kDa phosphorylation in platelets [3]: did not affect

Molecule: CCCCCCCCCCCCC/C=C/[C@@H](O)[C@H](COP(=O)([O-])OCC[N+](C)(C)C)NC(C)=O [reference compound]
inhibition of protein kinase C activity (protein kinase C [2]): None of these N-acetyl derivatives inhibited | effect on 40 kDa phosphorylation in platelets [3]: did not affect

Molecule: CCCCCCCCCCCCC/C=C/[C@@H](O)[C@@H](N)COP(=O)([O-])OCC[N+](C)(C)C [sphingosylphosphorylcholine]
Inhibition of Protein Kinase C, concentration giving 50% inhibition, (mol %) (protein kinase C [2]): 2.8 mol % | IC50 (protein kinase C [2]): 120 µM | Inhibition of [3H]PDBu Binding to Protein Kinase, (mol %) (protein kinase C [4]): 11.6 mol % | IC50 (protein kinase C [4]; read-out: Inhibition of [3H]PDBu Binding to Protein Kinase): 500 µM

inhibition of protein kinase C activity (protein kinase C [2]): None of the parent compounds inhibited
Molecule: sphingomyelin [reference compound]

From patent US4937232A, “Inhibition of protein kinase C by long-chain bases” (priority 1988, dated 1990)
